The values that follow come from US10981926B2 (Janssen Pharmaceutica NV, priority 2016, dated 2021).

Experiment [1] deals with rGABA-gated Cl− channel. As to the kind of experiment: GABA-Gated Cl Channel Antagonist Radioligand Binding Assay. Also on record: species or system rat. The following applies: 10 μM single point, [35S]-TBPS, cerebral cortex membrane homogenates. The procedure:
GABA-gated C1 Chanel assays were performed at CEREP according to the following method. Membrane homogenates of cerebral cortex (120 μg protein) were incubated for 120 min at 22° C. with 3 nM […] in the absence or presence of the test compound in a buffer containing 50 mM Na2HPO4/KH2PO4 (pH 7.4) and 500 mM NaCl. Nonspecific binding was determined in the presence of 20 μM picrotoxinin. Following incubation, the samples were filtered rapidly under vacuum through glass fiber filters (GF/B, Packard) presoaked with 0.3% PEI and rinsed several times with ice-cold 50 mM Tris-HCl using a 96-sample cell harvester (Unifilter, Packard). The filters were dried then counted for radioactivity in a scintillation counter (Topcount, Packard) using a scintillation cocktail (Microscint 0, Packard). The results are expressed as a percent inhibition of the control radio ligand specific binding. The standard reference compound is picrotoxinin, which was tested in each experiment at several concentrations to obtain a competition curve from which its IC50 was calculated. In this assay, the following representative compounds disclosed herein had recorded activities at a 10 μM single point concentration in the GABA-gated Cl— Channel Binding Assay.

In experiment [2] the target is T1, wild-type Androgen Receptor (AR-wt) (Homo sapiens (Human), UniProt P10275). As to the kind of experiment: LNCaP-AR-wt ANT reporter assay (antagonist mode). The experiment is classed as cell-based. Particulars: for Emax: maximum % inhibition of R1881 control response over tested concentration range, read-out: LNCaP-AR-wt ANT MAX % Inh; for IC50: read-out: LNCaP-AR-wt ANT pIC50 (converted).
T1 sequence (P10275 whole entry): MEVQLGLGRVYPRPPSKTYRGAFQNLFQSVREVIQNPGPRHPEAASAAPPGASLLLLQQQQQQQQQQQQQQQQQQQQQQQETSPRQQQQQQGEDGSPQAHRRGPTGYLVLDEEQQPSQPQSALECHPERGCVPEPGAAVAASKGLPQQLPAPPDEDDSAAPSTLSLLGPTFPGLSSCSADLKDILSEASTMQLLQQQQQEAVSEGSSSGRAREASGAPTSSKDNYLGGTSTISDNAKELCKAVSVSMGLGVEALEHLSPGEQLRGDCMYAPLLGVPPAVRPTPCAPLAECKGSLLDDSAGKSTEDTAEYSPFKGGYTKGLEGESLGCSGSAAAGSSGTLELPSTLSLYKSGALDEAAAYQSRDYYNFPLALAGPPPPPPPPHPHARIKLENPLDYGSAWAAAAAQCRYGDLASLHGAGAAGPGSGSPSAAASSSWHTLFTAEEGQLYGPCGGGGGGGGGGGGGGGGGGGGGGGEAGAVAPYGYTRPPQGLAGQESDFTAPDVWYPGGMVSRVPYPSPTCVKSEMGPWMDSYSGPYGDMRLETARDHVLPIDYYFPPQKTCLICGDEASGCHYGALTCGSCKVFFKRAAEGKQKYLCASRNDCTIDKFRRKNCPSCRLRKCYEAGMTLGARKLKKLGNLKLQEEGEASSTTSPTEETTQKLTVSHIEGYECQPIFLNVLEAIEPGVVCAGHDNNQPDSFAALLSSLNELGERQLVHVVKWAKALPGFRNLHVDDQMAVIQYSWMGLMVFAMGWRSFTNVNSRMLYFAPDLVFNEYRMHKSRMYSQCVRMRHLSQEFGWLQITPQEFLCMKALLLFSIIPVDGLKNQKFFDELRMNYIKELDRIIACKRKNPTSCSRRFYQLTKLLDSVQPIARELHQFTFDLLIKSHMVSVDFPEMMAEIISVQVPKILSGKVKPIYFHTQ

Experiment [3] addresses T2, F876L mutant Androgen Receptor (AR-F876L) (Homo sapiens (Human), UniProt P10275, F877L). As to the kind of experiment: LNCaP-AR-F876L AG reporter assay (agonist mode). The format is cell-based. Particulars: for Emax: maximum % stimulation over tested concentration range, read-out: LNCaP-AR-F876L AG MAX % Stim; for EC50: read-out: LNCaP-AR-F876L AG pEC50 (converted). For orientation: A reporter such as luciferase makes a cellular process visible.

For experiment [4], the target named is T1, wild-type Androgen Receptor (AR-wt). As to the kind of experiment: LNCaP-AR-wt AG reporter assay (agonist mode). The format is cell-based. The following applies: for Emax: maximum % stimulation over tested concentration range, read-out: LNCaP-AR-wt AG MAX % Stim; for EC50: read-out: LNCaP-AR-wt AG pEC50 (converted).
Experiment [5] deals with T2, F876L mutant Androgen Receptor (AR-F876L). As to the kind of experiment: LNCaP-AR-F876L ANT reporter assay (antagonist mode). The following applies: for Emax: maximum % inhibition of R1881 control response over tested concentration range, read-out: LNCaP-AR-F876L ANT MAX % Inh; for IC50: read-out: LNCaP-AR-F876L ANT pIC50 (converted). The format is cell-based.
[6] abbreviates: antagonist mode, pIC50 = −Log10(IC50 in Molar).
Setting [7] is: maximum % inhibition of R1881 control response over the tested concentration range.
Where [8] appears, read: agonist mode, pEC50 = −Log10(EC50 in Molar).
Where [9] appears, read: maximum % stimulation (agonist response) over the tested concentration range.

T2 sequence (P10275 whole entry F877L): as the sequence (P10275 whole entry) above, with F877L counted along it

As to “3-chloro-5-[8-[2-(1-methyl-4-piperidyl)indazol-5-yl]-5-oxo-7-thioxo-6,8-diazaspiro[3.4]octan-6-yl]pyridine-2-carbonitrile [Cpd 181]”, the “rGABA-gated Cl− channel % inh @10 μM” value in experiment [1] came to 26.0%. For the same compound, the “LNCaP-AR-wt ANT pIC50” value in experiment [2] (setting [6]) was 6.47. The “LNCaP-AR-wt ANT MAX % Inh” value in experiment [2] (setting [7]) was determined as 96.8%. For the same compound, the “LNCaP-AR-F876L AG pEC50” value in experiment [3] (setting [8]) is recorded as below 4.82. The “LNCaP-AR-F876L AG MAX % Stim” value in experiment [3] (setting [9]) amounted to 0.3%. The “LNCaP-AR-wt AG pEC50” value in experiment [4] (setting [8]) is reported as below 4.82. Also, in experiment [4] (setting [9]), the “LNCaP-AR-wt AG MAX % Stim” value was 1.9%. Further, the “LNCaP-AR-F876L ANT pIC50” value in experiment [5] (setting [6]) came out at 6.80. Besides, the “LNCaP-AR-F876L ANT MAX % Inh” value in experiment [5] (setting [7]) was 101.9%.

`N#Cc1ncc(N2C(=O)C3(CCC3)N(c3ccc(C4=CCCC(CO)O4)cc3)C2=S)cc1C(F)(F)F` (stereo not drawn) [Cpd 103, 5-(5-(4-(2-(hydroxymethyl)-3,4-dihydro-2H-pyran-6-yl)phenyl)-8-oxo-6-thioxo-5,7-diazaspiro[3.4]octan-7-yl)-3-(trifluoromethyl)picolinonitrile]: in experiment [1], the “rGABA-gated Cl− channel % inh @10 μM” value is recorded as 82.7%.

On to `Cc1cc(N2C(=O)C3(CCC3)N(c3cnc(OC4CCNCC4)nc3)C2=S)cnc1C#N` [Cpd 246, 3-methyl-5-[5-oxo-8-[2-(4-piperidyloxy)pyrimidin-5-yl]-7-thioxo-6,8-diazaspiro[3.4]octan-6-yl]pyridine-2-carbonitrile], for which the Emax was 0% in experiment [2] (antagonist mode), 0.2% in experiment [3] (agonist mode), 0.1% in experiment [4] (agonist mode) and 99.5% in experiment [5] (antagonist mode). The IC50 in experiment [2] (setting [6]) is 1.12 µM; in experiment [5] (setting [6]) it was 1.15 µM. For the same compound, the EC50 in experiment [3] (setting [8]) and in experiment [4] (setting [8]) was above 15.1 µM each time.

On to `Cc1cc(N2C(=O)C3(CCC3)N(c3cnc(OC4CCN(C)CC4)nc3)C2=S)cnc1C#N` [Cpd 247, 3-Methyl-5-[8-[2-[(1-methyl-4-piperidyl)oxy]pyrimidin-5-yl]-5-oxo-7-thioxo-6,8-diazaspiro[3,4]octan-6-yl]pyridine-2-carbonitrile], for which the Emax in experiment [2] (antagonist mode) is 0%; in experiment [3] (agonist mode), 0.2%; in experiment [4] (agonist mode), -0.1%; in experiment [5] (antagonist mode), 99.4%. In addition, the IC50 in experiment [2] (setting [6]) is 1 µM; in experiment [5] (setting [6]) it was 1.2 µM. Further, the EC50 in experiment [3] (setting [8]) and in experiment [4] (setting [8]) was above 15.1 µM in each case.

`N#Cc1ncc(N2C(=O)C3(CCC3)N(c3ccc4c(ccn4CCO)c3)C2=S)cc1C(F)(F)F` [Cpd 248, 5-[8-[1-(2-hydroxyethyl)indol-5-yl]-5-oxo-7-thioxo-6,8-diazaspiro[3.4]octan-6-yl]-3-(trifluoromethyl)pyridine-2-carbonitrile]: the Emax was found to be 0% in experiment [2] (antagonist mode), 0.4% in experiment [3] (agonist mode), 0% in experiment [4] (agonist mode) and 102% in experiment [5] (antagonist mode). In addition, the IC50 in experiment [2] (setting [6]) was 0.417 µM; in experiment [5] (setting [6]) it was 0.372 µM. Further, the EC50 in experiment [3] (setting [8]) and in experiment [4] (setting [8]) was above 15.1 µM each time.

In the case of `N#Cc1ncc(N2C(=O)C3(CCC3)N(c3ccc4c(ccn4C4CCNCC4)c3)C2=S)cc1C(F)(F)F` [Cpd 249, 5-[8-Oxo-5-(1-piperidin-4-yl-1H-indol-5-yl)-6-thioxo-5,7-diaza-spiro[3.4]oct-7-yl]-3-trifluoromethyl-pyridine-2-carbonitrile], the Emax in experiment [2] (antagonist mode) was 0%; in experiment [3] (agonist mode), 0%; in experiment [4] (agonist mode), 0%; in experiment [5] (antagonist mode) it was 103%. The IC50 in experiment [2] (setting [6]) is 0.407 µM; in experiment [5] (setting [6]), 0.316 µM. For the same compound, the EC50 in experiment [3] (setting [8]) and in experiment [4] (setting [8]) was above 15.1 µM in each case.

As for `N#Cc1ncc(N2C(=O)C3(CCC3)N(c3ccc4ccn(CCO)c4c3)C2=S)cc1C(F)(F)F` [Cpd 250, 5-[8-[1-(2-hydroxyethyl)indol-6-yl]-5-oxo-7-thioxo-6,8-diazaspiro[3.4]octan-6-yl]-3-(trifluoromethyl)pyridine-2-carbonitrile], the Emax was 0% in experiment [2] (antagonist mode), 0.1% in experiment [3] (agonist mode), 0% in experiment [4] (agonist mode) and 101% in experiment [5] (antagonist mode). For the same compound, the figures for the IC50 in experiment [2] (setting [6]) and in experiment [5] (setting [6]) were 1.17 µM and 0.977 µM, respectively. The EC50 in experiment [3] (setting [8]) and in experiment [4] (setting [8]) was above 15.1 µM in each case.

In the case of `CN1CCC(n2ccc3cc(N4C(=S)N(c5cnc(C#N)c(C(F)(F)F)c5)C(=O)C45CCC5)ccc32)CC1` [Cpd 251, 5-[8-[1-(1-methyl-4-piperidyl)indol-5-yl]-5-oxo-7-thioxo-6,8-diazaspiro[3.4]octan-6-yl]-3-(trifluoromethyl)pyridine-2-carbonitrile], the Emax is 0% in experiment [2] (antagonist mode), 0.1% in experiment [3] (agonist mode), -0.1% in experiment [4] (agonist mode) and 101% in experiment [5] (antagonist mode). In addition, the IC50 in experiment [2] (setting [6]) is 0.288 µM; in experiment [5] (setting [6]), 0.174 µM. The EC50 in experiment [3] (setting [8]) and in experiment [4] (setting [8]) was above 15.1 µM throughout.

In the case of `N#Cc1ncc(N2C(=O)C3(CCC3)N(c3cnc(OC4CCN(CCO)CC4)nc3)C2=S)cc1C(F)(F)F` [Cpd 252, 5-[8-[2-[[1-(2-hydroxyethyl)-4-piperidyl]oxy]pyrimidin-5-yl]-5-oxo-7-thioxo-6,8-diazaspiro[3.4]octan-6-yl]-3-(trifluoromethyl)pyridine-2-carbonitrile], the Emax was 0% in experiment [2] (antagonist mode), -0.1% in experiment [3] (agonist mode), -0.1% in experiment [4] (agonist mode) and 100% in experiment [5] (antagonist mode). In addition, the IC50 in experiment [2] (setting [6]) is 0.407 µM; in experiment [5] (setting [6]), 0.832 µM. Besides, the EC50 in experiment [3] (setting [8]) and in experiment [4] (setting [8]) was above 15.1 µM in each case.

In the case of `Cc1cc(N2C(=O)C3(CCC3)N(c3cnc(OC4CCN(CCO)CC4)nc3)C2=S)cnc1C#N` [Cpd 254, 5-[8-[2-[[1-(2-hydroxyethyl)-4-piperidyl]oxy]pyrimidin-5-yl]-5-oxo-7-thioxo-6,8-diazaspiro[3,4]octan-6-yl]-3-methyl-pyridine-2-carbonitrile], the Emax in experiment [2] (antagonist mode) was 0%; in experiment [3] (agonist mode) it was 0.4%; in experiment [4] (agonist mode), -0.1%; in experiment [5] (antagonist mode), 99.3%. The results for the IC50 in experiment [2] (setting [6]) and in experiment [5] (setting [6]) were 0.891 µM and 0.708 µM, respectively. The EC50 in experiment [3] (setting [8]) and in experiment [4] (setting [8]) was above 15.1 µM throughout.

On to `Cn1c(CCO)nc2cc(N3C(=S)N(c4cnc(C#N)c(C(F)(F)F)c4)C(=O)C34CCC4)ccc21` [Cpd 255, 5-[8-[2-(2-hydroxyethyl)-1-methyl-benzimidazol-5-yl]-5-oxo-7-thioxo-6,8-diazaspiro[3.4]octan-6-yl]-3-(trifluoromethyl)pyridine-2-carbonitrile], for which the Emax in experiment [2] (antagonist mode) came to 94.7%; in experiment [3] (agonist mode), 0.1%; in experiment [4] (agonist mode), 0.4%; in experiment [5] (antagonist mode), 99%. For the same compound, the IC50 in experiment [2] (setting [6]) was 2.51 µM; in experiment [5] (setting [6]), 2.75 µM. For the same compound, the EC50 in experiment [3] (setting [8]) and in experiment [4] (setting [8]) was above 15.1 µM in each case.

`CN1CCC(c2nc3cc(N4C(=S)N(c5cnc(C#N)c(C(F)(F)F)c5)C(=O)C45CCC5)ccc3[nH]2)CC1` [Cpd 256, 5-[8-[2-(1-methyl-4-piperidyl)-1H-benzimidazol-5-yl]-5-oxo-7-thioxo-6,8-diazaspiro[3.4]octan-6-yl]-3-(trifluoromethyl)pyridine-2-carbonitrile]: the Emax in experiment [2] (antagonist mode) was determined as 95.9%; in experiment [3] (agonist mode), 0.6%; in experiment [4] (agonist mode), 0.4%; in experiment [5] (antagonist mode), 96.8%. Moreover, the results for the IC50 in experiment [2] (setting [6]) and in experiment [5] (setting [6]) were 4.79 µM and 1.35 µM, respectively. Moreover, the EC50 in experiment [3] (setting [8]) and in experiment [4] (setting [8]) was above 15.1 µM each time.
